From US4237225A, “Process for preparing tunicamycin” (priority 1978, dated 1980)

Experiments:
Type in all cases: cell-based
Bacillus subtilis = assay: standard paper-disc inhibition test, zone of inhibition, Bacillus subtilis; settings: in vitro
Source text: (§1) The zones of inhibition, as determined in these tests, are shown below: […]

Micrococcus luteus = assay: standard paper-disc inhibition test, zone of inhibition, Micrococcus luteus; settings: in vitro
Source text: as §1

Candida albicans = assay: standard paper-disc inhibition test, zone of inhibition, Candida albicans; settings: in vitro
Source text: as §1

[1] = test system: Saccharomyces pastorianus; assay: standard paper-disc inhibition test, zone of inhibition, Saccharomyces pastorianus; settings: in vitro
Source text: as §1

Neurospora crassa = assay: standard paper-disc inhibition test, zone of inhibition, Neurospora crassa; settings: in vitro
Source text: as §1

[2] = test system: certain pathogenic organisms, particularly gram positive bacteria, fungi, and yeasts; assay: in vitro standard paper-disc inhibition tests (summary statement)
Source text: as §1

Staphylococcus aureus = assay: standard paper-disc inhibition test, zone of inhibition, Staphylococcus aureus; settings: in vitro
Source text: as §1

[3] = Bacillus subtilis in minimal medium

| Compound | Zone Diameter (Bacillus subtilis; [3]) [mm] | Zone Diameter (Bacillus subtilis; Bacillus subtilis) [mm] | Zone Diameter (Micrococcus luteus) | Zone Diameter (Candida albicans) [mm] | Zone Diameter [1] [mm] | Zone Diameter (Neurospora crassa) | growth inhibition of certain pathogenic organisms [2] | Zone Diameter (Staphylococcus aureus) |
| --- | --- | --- | --- | --- | --- | --- | --- | --- |
| CC(=O)NC1C(OC2OC(CC(O)C3OC(n4ccc(=O)[nH]c4=O)C(O)C3O)C(O)C(O)C2NC(=O)/C=C/CCCCCCCCCCCC(C)C)OC(CO)C(O)C1O (stereo not drawn) [Tunicamycin D] | 27 | 19 | tr (trace (6.5-9 mm)) | 11 | 13 | tr (trace (6.5-9 mm)) | inhibit the growth | tr (trace (6.5-9 mm)) |
| CC(=O)NC1C(OC2OC(CC(O)C3OC(n4ccc(=O)[nH]c4=O)C(O)C3O)C(O)C(O)C2NC(=O)/C=C/CCCCCCCCCC(C)C)OC(CO)C(O)C1O (stereo not drawn) [Tunicamycin A] | 35 | 25 | – | 15 | 18 | 10 mm | inhibit the growth | tr (trace (6.5-9 mm)) |
| CC(=O)NC1C(OC2OC(CC(O)C3OC(n4ccc(=O)[nH]c4=O)C(O)C3O)C(O)C(O)C2NC(=O)/C=C/CCCCCCCCC(C)C)OC(CO)C(O)C1O (stereo not drawn) [Tunicamycin C] | 36 | 28 | tr (trace (6.5-9 mm)) | 14 | 16 | 10 mm | inhibit the growth | – |
| CC(=O)NC1C(OC2OC(CC(O)C3OC(n4ccc(=O)[nH]c4=O)C(O)C3O)C(O)C(O)C2NC(=O)/C=C/CCCCCCCCCCC(C)C)OC(CO)C(O)C1O (stereo not drawn) [Tunicamycin B] | 29 | 19 | 10 mm | 12 | 23 | 10 mm | inhibit the growth | tr (trace (6.5-9 mm)) |
